Active and inactive are the calls of the source.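 The calls were made as follows: active = half-effect dose EC50 at most 10 µM and% response shifting 30% or more across doses, valid fit; inactive = the rest.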
These compounds were tested against GTPase HRas (Homo sapiens) (UniProt P01112) (assay: inhibition of Bodipy-GTP binding to H-Ras wt – biochemical, multiplex bead flow cytometry, round 1, SAR follow-up (AID 588388)). Conditions: GST-H-Ras beads, EDTA.
Sequence of GTPase HRas (Homo sapiens) (P01112 whole entry, looked up): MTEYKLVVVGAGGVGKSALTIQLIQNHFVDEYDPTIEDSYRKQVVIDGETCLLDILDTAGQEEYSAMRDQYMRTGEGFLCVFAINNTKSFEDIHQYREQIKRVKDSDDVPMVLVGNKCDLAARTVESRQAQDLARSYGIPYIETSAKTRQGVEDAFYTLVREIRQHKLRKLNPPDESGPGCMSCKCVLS

EC50 [nM] | SMILES
50 | CC1(C)Cc2c(sc(NC(=S)NC(=O)c3ccccc3F)c2C(=O)O)CO1
33 | O=C(NC(=S)Nc1sc2c(c1C(=O)O)CCOC2)c1ccccc1
78 | CC1(C)Cc2c(sc(NC(=S)NC(=O)c3ccccc3)c2C(=O)O)CO1
46 | CC1(C)Cc2c(sc(NC(=S)NC(=O)c3ccccc3Br)c2C(=O)O)CO1
67 | CC1(C)CCc2sc(NC(=S)NC(=O)c3ccccc3)c(C(=O)O)c2C1
257 | CC1(C)Cc2c(sc(NC(=S)NC(=O)c3ccc(Br)cc3)c2C(=O)O)CO1
54 | CC1Cc2c(sc(NC(=S)NC(=O)c3ccccc3)c2C(=O)O)CO1 (configuration not stated)
149 | CC1(C)Cc2c(sc(NC(=O)NC(=O)c3ccccc3)c2C(=O)O)CO1
290 | CC1(C)Cc2c(sc(NC(=S)NC(=O)c3cccc(F)c3)c2C(=O)O)CO1
30 | COc1cccc(C(=O)NC(=S)Nc2sc3c(c2C(=O)O)CC(C)(C)OC3)c1
108 | COc1ccc(C(=O)NC(=S)Nc2sc3c(c2C(=O)O)CC(C)(C)OC3)cc1

Same assay, conditions: GST-H-Ras beads, EDTA, at 100 µM (top of the series)

SMILES | % response (lower = inhibition)
CCOC(=O)c1c(NC(=O)NC(C)(C)C)sc2c1CCN(C)C2 | inactive
CCOC(=O)c1c(NC(=S)NC(=O)c2ccccc2)sc2ccccc12 | inactive
CN1CCc2c(sc3nc(Nc4ccc(F)cc4)oc(=O)c23)C1 | inactive
Cc1ccc(NC(=O)Nc2sc3c(c2C(=O)O)CCN(C)C3)cc1 | inactive
CN1CCc2c(sc(NC(=O)Nc3ccc(F)cc3)c2C(=O)O)C1 | inactive
CCOC(=O)c1c(NC(=O)Nc2ccc(F)cc2)sc2c1CCN(C)C2 | inactive
Cc1ccc(Nc2nc3sc4c(c3c(=O)o2)CCN(C)C4)cc1 | inactive
CC(C)(C)OC(=O)c1c(NC(=S)NC(=O)c2ccccc2)sc2c1CCOC2 | inactive
COC(=O)c1c(N)sc2c1CC(C)(C)OC2 | inactive
CCOC(=O)c1c(NC(=O)Nc2ccc(C)cc2)sc2c1CCN(C)C2 | inactive
CCOC(=O)c1c(N)sc2ccccc12 | inactive

Next, values leading:

% response (lower = inhibition) | SMILES
inactive | CC1(C)Cc2c(sc(NC(=S)NC(=O)c3cccc(Br)c3)c2C(=O)O)CO1
inactive | CCOC(=O)c1c(NC(=S)Nc2ccccc2)sc2c1CC(C)(C)OC2
inactive | COC(=O)c1c(NC(=S)NC(=O)c2ccccc2)sc2c1CC(C)(C)OC2
inactive | CC1(C)Cc2c(sc(NC(=O)Cc3ccccc3)c2C(=O)O)CO1
inactive | CC1(C)Cc2c(sc(NC(=S)Nc3ccccc3)c2C(=O)O)CO1

Source: PubChem BioAssay AID588388 (NMMLSC, 2011)
